Results published in patent publication US20240382544A1, “COMPOSITION FOR ANTI-OBESITY AND PREVENTING OR TREATING MUSCLE LOSS, CONTAINING CATECHIN GLYCOSIDE EXTRACT DERIVED FROM PLANT IN GENUS ULMUS AS ACTIVE INGREDIENT” (DR. OREGONIN INC., priority 2022, published 2024).
Entries after “also recorded” stand apart in the source; their conditions may differ.

System: 3T3-L1 cells
Experiment: Adipocyte differentiation (fat accumulation), Oil Red O staining
Format: cell-based, mouse
Method: 3T3-L1 cells, which are mouse-derived preadipocytes, were purchased from Korean Cell Line Bank. The 3T3-L1 cells were cultured using an DMEM medium (Welgene) supplemented with 10% bovine calf serum (BCF), 100 units/mL penicillin and 100 μg/mL streptomycin (complete DMEM medium) in a humidified CO2 incubator (5% CO2/95% air) at 37° C. When the cells filled about 80% of the culture dish, the cell monolayer was washed with phosphate-buffered saline (PBS, pH 7.4) and the cells were detached by adding trypsin-2.65 mM EDTA. Then, the cells were subcultured while replacing the medium every other day.
3T3-L1 cells were seeded onto a 24-well plate at 1×10^5 cells/well. When the cells reached confluence, differentiation into adipocytes was induced by culturing the cells while replacing the medium sequentially with three differentiation media (DM). That is to say, differentiation was induced for 2 days by replacing the medium with a differentiation medium wherein DMI (1 μM dexamethasone, 0.5 mM 3-isobutyl-1-methylxanthine (IBMX) and 5 μg/mL insulin) was added to a DMEM medium containing 10% FBS. Then, differentiation was induced again for 2 days by replacing the medium with a fresh differentiation medium wherein 5 μg/mL insulin was added to a DMEM medium containing 10% FBS. Then, differentiation into adipocytes was induced by maintaining the cells for 2 days in a DMEM medium containing 10% FBS. […]

Question: What does the source list for `OCC1(O)CO[C@@H](Oc2cc(O)c3c(c2)OC(c2ccc(O)c(O)c2)[C@@H](O)C3)C1O` (stereo partly drawn) [catechin 7-O-β-D-apiofuranoside]?
Answer: adipocyte differentiation-inhibiting ability (in words) (3T3-L1, concentration dependence): statistically significant adipocyte differentiation-inhibiting ability in a concentration-dependent manner; also recorded: inhibits the differentiation of adipocytes in a concentration-dependent manner with statistical significance; inhibition at 20 µg/mL (Mus musculus, 20 μg/mL (highest concentration tested), 3T3-L1, Oil Red O, read-out: adipocyte differentiation-inhibiting ability): ≥ 40%
